Laboratory results taken from US20240270821A1, “GIP/GLP1/GCG TRI-RECEPTOR AGONISTS AND USES THEREOF” (priority 2023, published 2024).
Read-outs that look alike come from different tables or passages of the source. Starred links: 1 amine or outer side, 2 acyl side, 3 side chain; linkers in the order of their positions; H or OH if unused. Non-standard residues stand in square brackets, D forms with d. Groups on a side chain read outwards from the residue. No end group written: not given here. *: point of attachment. C20 diacid = O=C(O)CCCCCCCCCCCCCCCCCCC(=O)*; C18 diacid = O=C(O)CCCCCCCCCCCCCCCCC(=O)*; γGlu = O=C(O)[C@H](CCC(=O)[*:2])N[*:1]; εLys = N[C@@H](CCCCN[*:1])C(=O)[*:2]; αMe4Pal = C[C@](N)(Cc1ccncc1)C(=O)O; αMeL = CC(C)C[C@](C)(N)C(=O)O; AEEA = NCCOCCOCC(=O)O; Aib = CC(C)(N)C(=O)O

Assays:
hGIPR [1] = molecular target: T1, hGIPR (Homo sapiens, UniProt P48546); experiment: Functional cAMP activity in the presence of 1% HSA; format: cell-based
T1 sequence (P48546 22-466): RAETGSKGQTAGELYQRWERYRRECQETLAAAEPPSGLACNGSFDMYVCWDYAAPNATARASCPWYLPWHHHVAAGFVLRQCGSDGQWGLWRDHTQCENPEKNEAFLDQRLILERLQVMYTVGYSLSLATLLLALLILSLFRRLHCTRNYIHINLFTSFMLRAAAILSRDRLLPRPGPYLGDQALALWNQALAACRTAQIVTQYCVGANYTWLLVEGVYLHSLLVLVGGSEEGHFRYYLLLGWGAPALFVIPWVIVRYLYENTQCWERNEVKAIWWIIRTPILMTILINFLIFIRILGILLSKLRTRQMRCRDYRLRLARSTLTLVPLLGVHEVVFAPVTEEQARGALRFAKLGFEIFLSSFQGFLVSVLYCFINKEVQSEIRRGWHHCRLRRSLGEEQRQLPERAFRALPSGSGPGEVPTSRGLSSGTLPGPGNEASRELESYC

hGLP-1R [2] = molecular target: T2, hGLP-1R (Homo sapiens, UniProt P43220); experiment: Functional cAMP activity in the presence of 1% HSA; format: cell-based
Target sequence in this assay (P43220 24-463): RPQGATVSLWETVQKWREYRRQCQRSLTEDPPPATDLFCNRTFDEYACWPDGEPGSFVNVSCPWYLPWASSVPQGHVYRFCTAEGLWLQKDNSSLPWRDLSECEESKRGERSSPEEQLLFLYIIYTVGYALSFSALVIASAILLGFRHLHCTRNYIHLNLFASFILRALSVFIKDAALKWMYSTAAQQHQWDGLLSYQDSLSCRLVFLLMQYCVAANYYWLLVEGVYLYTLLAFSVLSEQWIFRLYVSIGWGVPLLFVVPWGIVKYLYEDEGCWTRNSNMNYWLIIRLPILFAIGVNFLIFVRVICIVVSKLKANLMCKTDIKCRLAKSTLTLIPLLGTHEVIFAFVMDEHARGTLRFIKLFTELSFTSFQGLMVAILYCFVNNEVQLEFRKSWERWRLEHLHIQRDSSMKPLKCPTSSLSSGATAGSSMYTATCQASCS

human GcgR = human GcgR (Homo sapiens, UniProt P47871); experiment: Functional cAMP activity in the presence of 1% HSA; format: cell-based
hGIPR [3] = molecular target: T1, hGIPR; experiment: Functional cAMP activation in the presence of 0.1% casein (no HSA); format: cell-based;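 for Relative cAMP EC50, hGIPR: intracellular cAMP rise after 30 min at 37 °C read by HTRF against a standard curve, scaled between buffer alone (0%) and top control ligand concentration (100%), four-parameter fit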;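 for Relative cAMP EC50, hGLP-1R: intracellular cAMP rise after 30 min at 37 °C read by HTRF, normalized between buffer only (0%) and maximal control ligand (100%), four-parameter variable-slope fit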;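 for Relative cAMP EC50, hGcgR: intracellular cAMP rise after 30 min at 37 °C, read by HTRF against a cAMP standard curve, scaled from buffer only (0%) to maximal control ligand response (100%)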
hGLP-1R [4] = molecular target: T2, hGLP-1R; experiment: as above; format: cell-based
Target sequence in this assay (P43220 24-463): as above

hGcgR = hGcgR (Homo sapiens, UniProt P47871); experiment: as above; format: cell-based;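 note: intracellular cAMP rise after 30 min at 37 °C, read by HTRF against a cAMP standard curve, scaled from buffer only (0%) to maximal control ligand response (100%)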
[5] = Pharmacokinetics in male Sprague Dawley rats, single subcutaneous administration; conditions: rat, in vivo, sc, 10 nmol/kg
Procedure: The pharmacokinetics of the exemplary analogs are evaluated following a single subcutaneous (SC) administration of 10 nmol/kg (dissolved in 40 mM Tris pH8) or single 4 mg/kg (mixed with 250 mM sodium decanoate/C10 in 40 mM Tris pH8) intrajejunal (IJ) administration to male Sprague Dawley rats. Blood samples are collected over 96 hours following SC administration and 72 hours following IJ dosing, and resulting individual plasma concentrations are used to calculate pharmacokinetic parameters. Peptide plasma (K3 EDTA) concentrations are determined using a qualified LC/MS method that measured the intact mass of the analog. Each peptide and an analog as an internal standard are extracted from rat plasma using methanol. A High Resolution Instrument was used for LC/MS detection.

human GLP1-R = human GLP1-R (Homo sapiens, UniProt P43220); experiment: GLP1-R internalization assay in HEK293 cells; format: cell-based; conditions: for Internalization % TOP: normalized to maximum concentration of GLP-1 (100%)
hGLP-1R [6] = molecular target: T2, hGLP-1R; experiment: GLP-1R CHO cell β-arrestin recruitment assay; format: cell-based; set-up: host or cells: CHO-K1 (PathHunter, assay-ready frozen cells);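 note: luminescence read after 90 min peptide exposure at 37 °C and a further 60 min with detection reagent at room temperature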
Target sequence in this assay (P43220 24-463): as above
Target sequence in this assay (P32121 whole entry partner): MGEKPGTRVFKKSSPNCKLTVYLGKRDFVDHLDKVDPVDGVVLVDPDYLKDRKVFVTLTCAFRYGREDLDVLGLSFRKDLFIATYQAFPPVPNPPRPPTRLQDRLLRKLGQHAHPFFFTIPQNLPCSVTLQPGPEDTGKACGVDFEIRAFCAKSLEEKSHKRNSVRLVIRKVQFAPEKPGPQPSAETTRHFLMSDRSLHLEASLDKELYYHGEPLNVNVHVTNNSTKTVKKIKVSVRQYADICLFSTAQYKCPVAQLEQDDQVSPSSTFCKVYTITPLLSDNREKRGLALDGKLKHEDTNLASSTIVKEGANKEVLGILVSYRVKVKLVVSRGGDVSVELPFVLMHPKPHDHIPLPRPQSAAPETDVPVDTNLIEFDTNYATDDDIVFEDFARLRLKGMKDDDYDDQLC
Procedure: CHO-KI cells expressing Pro-Link-tagged Human GLP-1R and enzyme-acceptor-tagged β-arrestin-2 may be obtained from DiscoveRx and prepared as assay-ready frozen cells. Test peptides are solubilized in DMSO and serial dilutions are performed using the Echo acoustic dispenser (LabCyte). Assay media is the PathHunter Cell Assay Buffer (DiscoveRx) containing 0.1% w/v hydrolyzed Casein (Sigma). […] Plates are incubated for 90 minutes in a 37′C/5% C02 incubator and 10 μl of PathHunter detection reagent is added (DiscoveRx) and plates are incubated at room temperature for 60 minutes. Luminescence signal is measured. Peptide concentration-response curves fit to a four-parameter logistic model to calculate potency as an EC50.

[7] = In vivo ileum (distal loop) absorption assay; conditions: Sprague Dawley, rat, 300 μM peptide with 100 mM C10, rats; for level at time molar at 10 min: read-out: 10 min IL plasma concentration; for level at time molar at 20 min: read-out: 20 min IL plasma concentration; for level at time molar at 40 min: read-out: 40 min IL plasma concentration; for level at time molar at 1 h: 60 min, read-out: 60 min IL plasma concentration
Procedure: Ileum absorption of the exemplary polypeptides in the presence of C10 in rats is evaluated using a previously reported intestinal closed loop model (Lawrence, S. A.; Blankenship, R.; Brown, […].; Ellis, B.; Thangaraju, A.; Datta-Mannan, A., Influence of FcRn binding properties on the gastrointestinal absorption and exposure profile of Fc molecules. […] Overnight fasted Sprague Dawley rats with body weights between 250-280 grams are anesthetized by inhaling isoflurane and placed on a warm surgical table maintained by circulating water at 37 °C. The surgical area is shaved, and the skin is disinfected with betadine scrub followed by 70% isopropyl alcohol. An approximately 2 cm ventral midline incision is made to expose intestine, and 10 cm of an ileum segment is tied off. The peptides are formulated with 100 mM C10 in Tris buffer (pH 8.0, 50 mM) at a final concentration of 300 μM. The formulations are administered directly into the ileum loop. […] Blood samples are collected into tubes containing […] (5%) and processed to plasma for subsequent analyses. Peptide concentrations in the plasma are determined by LC/MS.

Chain of human GLP1-R (P43220 24-463): as the sequence (P43220 24-463) above
Chain of hGcgR (P47871 26-477): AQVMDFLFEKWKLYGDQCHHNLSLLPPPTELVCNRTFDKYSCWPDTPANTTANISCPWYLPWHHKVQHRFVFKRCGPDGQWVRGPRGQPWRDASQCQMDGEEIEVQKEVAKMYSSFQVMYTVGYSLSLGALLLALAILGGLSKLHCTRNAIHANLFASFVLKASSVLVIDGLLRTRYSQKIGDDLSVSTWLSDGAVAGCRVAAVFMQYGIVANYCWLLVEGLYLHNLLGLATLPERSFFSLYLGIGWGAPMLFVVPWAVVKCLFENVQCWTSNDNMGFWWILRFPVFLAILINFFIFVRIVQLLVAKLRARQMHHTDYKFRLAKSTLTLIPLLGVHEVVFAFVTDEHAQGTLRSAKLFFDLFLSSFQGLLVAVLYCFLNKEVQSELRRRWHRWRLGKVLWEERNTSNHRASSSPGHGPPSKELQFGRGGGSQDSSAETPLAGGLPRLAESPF
Chain of human GcgR (P47871 26-477): as above

Compound | Internalization % TOP (human GLP1-R) [%] | EC50 (hGIPR [1]) [nM] | EC50 (hGLP-1R [2]) [nM] | EC50 (human GcgR) [nM] | EC50 (hGIPR [3]) [nM] | EC50 (hGLP-1R [4]) [nM] | EC50 (hGcgR) [nM] | EC50 (human GLP1-R) [nM] | AUC [7] [µM·h] | level at time molar at 10 min [7] [nM] | level at time molar at 20 min [7] [nM] | level at time molar at 40 min [7] [nM] | level at time molar at 1 h [7] [nM] | other results
H-Y[Aib]QGTFTSDYSI[αMeL]LDKQAAK([εLys-εLys-γGlu-C20 diacid])QFVEWLLA[Aib]GPSSGEPPPSEG-NH2 [Example 329] | 91.1 | – | – | – | – | – | – | – | – | – | – | – | – | EC50 (hGIPR [1]; read-out: cAMP Rel EC50, hGIPR): 42.6 nM; EC50 (hGLP-1R [2]; read-out: cAMP Rel EC50, hGLP-1R): 204 nM; EC50 (human GcgR; read-out: cAMP Rel EC50, hGcgR): 842 nM; EC50 (hGIPR [3]; in the presence of 0.1% casein (no HSA), geometric mean, read-out: Relative cAMP EC50, hGIPR): 0.207 nM; EC50 (hGLP-1R [4]; in the presence of 0.1% casein (no HSA), geometric mean, read-out: Relative cAMP EC50, hGLP-1R): 0.926 nM; EC50 (hGcgR; in the presence of 0.1% casein (no HSA), geometric mean, read-out: Relative cAMP EC50, hGcgR): 3.47 nM; CL/F [5]: 0.322 mL/min/kg; half-life [5]: 12.6 h; EC50 (human GLP1-R; HEK293 cells expressing SNAP-GLP-1R, read-out: GLP1R Internalization EC50): 34 nM; EC50 (hGLP-1R [6]; CHO-K1 PathHunter, β-arrestin-2, 0.1% casein, read-out: hGLP1R β-arrestin Rel EC50): 6.11 nM; % Stimulation Max (hGLP-1R [6]; normalized to GLP-1(7-36) as maximum control): 74.5%
CC[C@H](C)[C@H](NC(=O)[C@H](Cc1ccccc1)NC(=O)[C@H](C)NC(=O)C(C)(C)NC(=O)[C@H](CCC(N)=O)NC(=O)[C@H](C)NC(=O)[C@H](CCCCNC(=O)COCCOCCNC(=O)CC[C@H](NC(=O)CCCCCCCCCCCCCCCCC(=O)O)C(=O)O)NC(=O)[C@H](CCCCN)NC(=O)[C@H](CC(=O)O)NC(=O)[C@H](CC(C)C)NC(=O)[C@](C)(CC(C)C)NC(=O)[C@H](CCC(N)=O)NC(=O)[C@H](CO)NC(=O)[C@H](Cc1ccccc1)NC(=O)[C@H](CC(=O)O)NC(=O)[C@H](CO)NC(=O)[C@@H](NC(=O)[C@H](Cc1ccccc1)NC(=O)[C@@H](NC(=O)CNC(=O)[C@H](CCC(N)=O)NC(=O)C(C)(C)NC(=O)[C@@H](N)Cc1ccc(O)cc1)[C@@H](C)O)[C@@H](C)O)C(=O)N[C@@H](CCC(=O)O)C(=O)N[C@@H](Cc1ccc(O)cc1)C(=O)N[C@@H](CC(C)C)C(=O)N[C@@H](CC(C)C)C(=O)N[C@@H](CCC(=O)O)C(=O)NC(C)(C)C(=O)NCC(=O)N1CCC[C@H]1C(=O)N[C@@H](CO)C(=O)N[C@@H](CO)C(=O)NCC(=O)N[C@@H](C)C(=O)N1CCC[C@H]1C(=O)N1CCC[C@H]1C(=O)N1CCC[C@H]1C(=O)N[C@@H](CO)C(=O)NCC(=O)N[C@@H](CO)C(N)=O [Example 151] | 55 | 14.9 | 384 | 1420 | 0.0784 | 1.6 | 3.5 | 77.8 | 0.0886 | 69 | 95 | 115 | 124 | –
Y[Aib]QGTFTSDFSQ[αMeL]LDKK([AEEA-γGlu-C18 diacid])AQ[αMe4Pal]AFIEYLIE[Aib]GESSGAPPPSGS-NH2 [Example 232] | 45.5 | 24.6 | 226 | 482 | 0.102 | 0.819 | 2.42 | 44.7 | 0.202 | 186 | 235 | 255 | 256 | –
